# Source: ChEMBL document CHEMBL1140229, “Flavanones from the stem bark of Erythrina abyssinica” (Bioorg Med Chem, 2008)
# Active and inactive are the calls of the source. The calls are words filed in the database; no cut-off is given here.
# Molecular target: T1, Tyrosine-protein phosphatase non-receptor type 1 (Homo sapiens) (UniProt P18031)
# T1 sequence (whole entry): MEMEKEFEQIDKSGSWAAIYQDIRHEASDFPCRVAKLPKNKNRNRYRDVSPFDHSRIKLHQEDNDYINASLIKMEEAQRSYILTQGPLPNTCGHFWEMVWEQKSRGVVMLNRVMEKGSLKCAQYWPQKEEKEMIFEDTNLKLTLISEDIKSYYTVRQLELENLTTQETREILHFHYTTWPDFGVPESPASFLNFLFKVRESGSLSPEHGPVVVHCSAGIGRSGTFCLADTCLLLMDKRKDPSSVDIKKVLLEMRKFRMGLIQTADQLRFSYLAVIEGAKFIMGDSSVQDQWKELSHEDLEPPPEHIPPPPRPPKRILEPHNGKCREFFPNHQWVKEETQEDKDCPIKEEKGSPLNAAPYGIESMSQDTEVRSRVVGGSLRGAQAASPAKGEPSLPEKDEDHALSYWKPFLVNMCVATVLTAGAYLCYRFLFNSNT
# Experiment: (§1) Inhibition of human recombinant PTP1B
row,Structure (SMILES),Activity
1,O=C1C[C@@H](c2ccc(O)cc2)Oc2cc(O)cc(O)c21,inactive
2,O=C1C[C@@H](c2ccc(O)cc2)Oc2cc(O)ccc21,inactive

# Molecular target: T2, Tyrosine-protein phosphatase non-receptor type 1 (Homo sapiens, UniProt P18031)
# T2 sequence (P18031 whole entry): T1 sequence (whole entry)
# Experiment: as §1
row,Structure (SMILES),IC50
1,COc1c(/C=C/C(C)(C)O)cc([C@@H]2CC(=O)c3c(O)cc(O)cc3O2)cc1CC=C(C)C [BURTTINONE],18.9 µM
2,CC(C)=CCc1cc([C@@H]2CC(=O)c3c(O)cc(O)cc3O2)cc2c1OC(C)(C)C(O)C2O (some centres undefined),19 µM
3,CC1(C)Oc2c(O)cc([C@@H]3CC(=O)c4ccc(O)cc4O3)cc2CC1O (some centres undefined),> 60 µM
4,COc1cc([C@@H]2CC(=O)c3c(O)cc(O)cc3O2)cc2c1OC(C)(CO)C=C2 (some centres undefined),17.9 µM
5,CC1(C)Oc2ccc([C@@H]3CC(=O)c4c(O)cc(O)cc4O3)cc2C(O)C1O (some centres undefined),> 60 µM
6,CC1(C)CC(=O)c2cc([C@@H]3CC(=O)c4c(O)cc(O)cc4O3)cc(O)c2O1,> 60 µM
7,C=C(C)/C=C/c1cc([C@@H]2CC(=O)c3c(O)cc(O)cc3O2)cc(CC=C(C)C)c1OC [BURTTINONEDEHYDRATE],21.6 µM
8,CC1(C)C=Cc2cc([C@@H]3CC(=O)c4c(O)cc(O)cc4O3)c3c(c2O1)OC(C)(C)C=C3,> 60 µM
9,CCCCCCCCCCCCCCCC(=O)C1=C(O)[C@@H](CO)OC1=O,4.7 µM
10,CC1(C)Oc2c(O)cc([C@@H]3CC(=O)c4c(O)cc(O)cc4O3)cc2C[C@@H]1O [SIGMOIDIN D],> 60 µM
11,CC1(CO)C=Cc2cc([C@@H]3CC(=O)c4c(O)cc(O)cc4O3)cc(O)c2O1 (some centres undefined),> 60 µM
12,CC(C)=CCc1c([C@@H]2CC(=O)c3c(O)cc(O)cc3O2)cc2c(c1O)OC(C)(C)C(O)C2O (some centres undefined),18.2 µM
13,CC1(C)Oc2c(O)cc([C@@H]3CC(=O)c4ccc(O)cc4O3)cc2C(O)C1O (some centres undefined),> 60 µM
14,CC(C)=CCc1c([C@@H]2CC(=O)c3c(O)cc(O)cc3O2)cc(O)c2c1C=CC(C)(C)O2,13.9 µM
15,COc1cc([C@@H]2CC(=O)c3c(O)cc(O)cc3O2)cc2c1OC(C)(C)C(O)C2 (some centres undefined),18.2 µM
16,CC(C)=CCc1cc([C@@H]2CC(=O)c3c(O)cc(O)cc3O2)cc2c1OC(C)(C)C(O)C2 (some centres undefined),14.9 µM
17,CC1(C)C(C2CC(=O)c3ccccc3O2)=C(O)C(O)=C2OC(O)C(O)C(O)C21 (centres undefined) [SIGMOIDIN G],> 60 µM
